Source: patent US20060172019A1 (priority 2003, published 2006)
“Also recorded” adds a separate entry of the source. Where two headings read alike, the source gives them in different places.

Experiments:
[1] = system: ovariectomy induced bone loss; assay: Ovariectomy induced bone loss, peripheral quantitative computed tomography; assay type: in vivo, C57/BL6 mice; conditions: for ovariectomy-induced bone loss in a mouse model: in vivo
rabbit osteoclasts = assay: Rabbit osteoclast culture; assay type: cell-based
Protocol: Osteoclast survival and activity was studied in cultures of rabbit osteoclasts. Osteoclasts were isolated from the long bones of 2-3 day-old rabbits as described previously (see, e.g., Coxon et al., 2000), plated on dentine slices and cultured in αMEM supplemented with 10% FCS and penicillin and streptomycin at 37° C. in 5% CO2 for 48 hours in the presence or absence of test compounds.

[2] = system: J774 murine macrophage cells; assay: Alamar Blue J774 murine macrophage viability assay; assay type: cell-based; conditions: for IC50: Mus musculus; for effect on J774 survival: data not shown
Protocol: J774 cells were plated at 10^4 cells per well in 150 μL αMEM (α Modified Eagle Medium) in 96-well plates and grown overnight. The next day, compounds were added to the cultures, and culture was continued for another 72 hours.
Alamar Blue is an oxidation-reduction sensitive indicator. The dye itself is in the oxidised state, which is blue and non-fluorescent. The dye can accept electrons from reducing species, such as NADPH and FADH, to form a reduced dye species, which is red and fluorescent. Thus the transformation from oxidised form to reduced form can be measured by fluorimetric or colourimetric means. For fluorescence measurements, 530-560 nm excitation and 590 nm emission wavelengths are typically used. For colourimetric measurements, absorbance is measured at 570 nm (reduced form) and 600 nm (oxidised form) and a simple calculation performed to determine the relative quantities of the two species.
A high ratio of the reducing species, NADPH and FADH, to the corresponding oxidised species, NADP and FAD, is an indicator that cells are proliferating and viable. A low ratio indicates cells that are quiescent or non-viable.
Briefly, Alamar Blue (Biosource International) was added undiluted to the each well (1:10 v/v, 15 μL). The plate was incubated at 37° C. for 3-4 hours and the fluorescence was measured at 570 nm, with a 25 nm bandwidth. A high reading indicated cells with normal viability, and a low reading indicates cells that have been damaged and are no longer proliferating normally.
In general, compounds studied were made up as 100 mM solutions in DMSO. These stock solutions were then diluted 100 or 1000× in culture medium (αMEM).

CB1 receptor [3] = biological target: T1, CB1 receptor (Homo sapiens, UniProt P21554); conditions: cited from earlier work
T1 sequence (P21554 whole entry): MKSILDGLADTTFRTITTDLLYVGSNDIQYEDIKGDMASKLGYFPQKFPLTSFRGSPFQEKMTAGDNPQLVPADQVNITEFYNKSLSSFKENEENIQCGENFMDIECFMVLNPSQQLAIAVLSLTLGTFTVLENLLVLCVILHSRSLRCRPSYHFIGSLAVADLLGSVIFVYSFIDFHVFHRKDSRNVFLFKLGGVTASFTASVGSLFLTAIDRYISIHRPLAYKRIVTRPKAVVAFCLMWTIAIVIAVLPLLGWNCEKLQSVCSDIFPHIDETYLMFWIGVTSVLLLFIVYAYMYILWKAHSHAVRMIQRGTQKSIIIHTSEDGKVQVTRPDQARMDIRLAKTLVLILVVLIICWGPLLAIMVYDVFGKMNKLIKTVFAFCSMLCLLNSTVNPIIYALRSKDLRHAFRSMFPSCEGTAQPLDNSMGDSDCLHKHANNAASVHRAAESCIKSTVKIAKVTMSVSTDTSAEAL

CB1 receptor [4] = biological target: T1, CB1 receptor; conditions: read-out: Ki (nM) CB1, cited from earlier work
CB2 receptor [5] = biological target: T2, CB2 receptor (Homo sapiens, UniProt P34972); conditions: cited from earlier work; for Classification CB2: Table 1; for CB receptor function (CB2): Table 2
T2 sequence (P34972 whole entry): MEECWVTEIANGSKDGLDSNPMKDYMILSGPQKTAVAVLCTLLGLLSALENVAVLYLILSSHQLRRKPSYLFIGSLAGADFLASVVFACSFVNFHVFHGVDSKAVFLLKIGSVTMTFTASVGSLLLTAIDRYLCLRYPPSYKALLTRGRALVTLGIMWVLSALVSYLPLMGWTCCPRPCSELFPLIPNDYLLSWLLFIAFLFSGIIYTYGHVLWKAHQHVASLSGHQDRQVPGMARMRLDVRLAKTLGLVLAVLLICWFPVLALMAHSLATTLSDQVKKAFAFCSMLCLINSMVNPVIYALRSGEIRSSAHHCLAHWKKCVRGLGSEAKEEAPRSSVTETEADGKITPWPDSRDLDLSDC

CB2 receptor [6] = biological target: T2, CB2 receptor
mouse osteoblasts = assay: Mouse osteoblast culture (Alamar Blue); assay type: cell-based; conditions: 72 hours, n=3
Protocol: Osteoblasts were isolated as described above and plated at 10^4 cells/well in 96-well plates in 100 μL of αMEM supplemented with 10% FCS and antibiotics. Test substances were added after 24 hours and left for 72 hours. Cell viability was assessed using the Alamar Blue assay.

osteoclasts = assay: cells; assay type: cell-based, mice; conditions: Mus musculus, Osteoclast; TRAcP MNC and resorbed area, n=3; read-out: IC50, inhibition of osteoclast function and bone resorption
Protocol: Osteoblasts were isolated from the calvarial bones of 2-day-old mice by sequential collagenase digestion (type I collagenase, Sigma) and cultured in αMEM supplemented with 10% FCS and penicillin and streptomycin at 37° C. in 5% CO2. […] The resulting bone marrow cells were washed with PBS and resuspended in culture medium.
Osteoblasts and bone marrow cells were plated at 10^4 cells/well and 2×10^5 cells/well, respectively, in 96-well plates in 150 μL of αMEM supplemented with 10% FCS, antibiotics and 10 nM 1,25-dihydroxyvitamin D3. Test substances were added on day 7 and the cultures were terminated on day 10. At the end of the culture period, osteoclasts were identified by TRAcP staining and resorption pits were quantified by reflected light microscopy, as described above.

[7] = system: ovariectomy induced bone loss; assay: Ovariectomy induced bone loss, dual energy x-ray absorptiometry; assay type: in vivo, C57/BL6 mice; conditions: 6 mg/kg, OVX operation, DEXA
Protocol: Animals. Female 9 week-old C57/BL6 mice. Animals were housed in a designated animal facility and routinely maintained on a 12 h:12 h light:dark cycle and given ad libitum access to food and water.
Ovariectomy induced bone loss. Bilateral ovariectomy (Ovx) was performed under general anaesthesia. Sham ovariectomy (Sham) was similarly performed but with externalisation and replacement of the ovaries. Animals were given a daily injection of (a) candidate compound (e.g., 6 mg/kg) in vehicle (corn oil), or (b) vehicle (corn oil). After 21 days, the animals were killed, and the tibial bones were dissected and used for bone mineral density measurements and histomorphometric analysis (see below).
Whole body, spine and femoral bone mineral density (BMD) and bone mineral content (BMC) were determined using a Piximus small animal DEXA scanner at the start and the end of the experiment. Daily quality assurance measurements were performed using a phantom according to the manufacturer's instructions.

[8] = J774, Alamar Blue, 72 hours, n=3, read-out: IC50, J774 survival
[9] = J774 viability assay, Table 2, read-out: IC50 in J774 cells
[10] = Table 1; read-out: Ki (nM) CB2; cited from earlier work

Cc1c(C(=O)NN2CCCCC2)nn(-c2ccc(Cl)cc2Cl)c1-c1ccc(I)cc1 [AM251]
ovariectomy-induced bone loss in a mouse model [1]: completely reverse
bone resorption (resorbed area) (rabbit osteoclasts; 10 μM (p<0.03) and 20 μM (p<0.01), 48 hours): reduced
J774 viability (summary in words) [2]: inhibit
CB receptor function (CB1) (CB1 receptor [3]): CB1 inverse agonist
Classification CB1 (CB1 receptor [3]): Inverse agonist

Cc1c(C(=O)NN2CCOCC2)nn(-c2ccc(Cl)cc2Cl)c1-c1ccc(I)cc1 [AM281]
Ki (CB1 receptor [4]; Table 1): 12 nM
Classification CB1 (CB1 receptor [3]; Table 1): Inverse agonist

COc1ccc(C(=O)c2c(C)n(CCN3CCOCC3)c3cc(I)ccc23)cc1 [AM630]
Classification CB2 (CB2 receptor [5]): Inverse agonist
CB receptor function (CB2) (CB2 receptor [5]): CB2 inverse agonist
J774 viability (summary in words) [2]: inhibit
IC50 [2, 8]: ~20 µM
IC50 [2, 9]: 20 µM

CCCCC/C=C\C/C=C\C/C=C\C/C=C\CCCC(=O)NCCO [Anandamide, arachidonyl ethanolamide]
Classification CB2 (CB2 receptor [5]): Partial agonist
CB receptor function (CB2) (CB2 receptor [5]): CB2 partial agonist/; also recorded: antagonist
J774 viability (summary in words) [2]: inhibits
IC50 [2, 8]: ~40 µM
IC50 [2, 9]: 40 µM
effect on J774 survival ([2]; low concentrations): no effect

CCCCCCC(C)(C)c1ccc([C@@H]2C[C@H](O)CC[C@H]2CCCO)c(O)c1 [CP55940]
CB receptor function (CB2) (CB2 receptor [5]): CB2 agonist
J774 viability (summary in words) [2]: do not affect
IC50 in J774 cells ([2]; J774 viability assay, Table 2): inactive
effect on J774 survival ([2]; concentrations of up to 100 μM): did not affect
CB receptor function (CB1) (CB1 receptor [3]): CB1 agonist

CCCCCc1cc(O)c2c(c1)OC(C)(C)c1ccc(C)cc1-2 [Cannabinol, cannabinol]
Ki (CB1 receptor [4]): 115 nM
Classification CB2 (CB2 receptor [5]): Inverse agonist
Ki (CB2 receptor [6]; read-out: Ki (nM) CB2; Table 1; cited from earlier work): 580 nM
Classification CB1 (CB1 receptor [3]): Neutral antagonist

CCCCCOc1c(OC)ccc2cc(C(=O)NCc3ccc4c(c3)OCO4)c(=O)[nH]c12 [JTE-907, 7-Methoxy-2-oxo-8-pentyloxy-1,2-dihydro-quinoline-3-carboxylic acid (benzo[1,3]dioxol-5-yl-methyl)-amide]
Ki (CB1 receptor [4]): 684 nM
osteoblast survival (mouse osteoblasts): little activity
Classification CB2 (CB2 receptor [5]): Inverse agonist
CB receptor function (CB2) (CB2 receptor [5]): CB2 inverse agonist
IC50 [2, 8]: ~25 µM
IC50 [2, 9]: 25 µM
Classification CB1 (CB1 receptor [3]): Inactive

CCCC(C)(C)c1ccc2c(c1)OC(C)(C)[C@@H]1CC=C(C)C[C@@H]21 [JWH 133]
CB receptor function (CB2) (CB2 receptor [5]): CB2-selective agonist
J774 viability (summary in words) [2]: does not affect
IC50 in J774 cells ([2]; J774 viability assay, Table 2): inactive
effect on J774 survival ([2]; concentrations of up to 20 μM): did not affect

COc1ccc(-c2oc3cc(OC)ccc3c2C(=O)c2ccc(C#N)cc2)cc1 [LY320135]
Classification CB2 (CB2 receptor [5]): Inactive
Classification CB1 (CB1 receptor [3]; Table 1): Inverse agonist

CC1=CCC2[C@@H](C1)c1c(O)cc(CC#CCCCN=[N+]=[N-])cc1OC2(C)C (stereo partly drawn) [O1184]
Ki (CB1 receptor [4]; Table 1): 5.2 nM
Classification CB2 (CB2 receptor [5]): Inverse agonist
Ki (CB2 receptor [6]; [10]): 7.4 nM
Classification CB1 (CB1 receptor [3]; Table 1): Partial agonist

CC1=CCC2[C@@H](C1)c1c(O)cc(C/C=C\CCCN=[N+]=[N-])cc1OC2(C)C (stereo partly drawn) [O1238]
Ki (CB1 receptor [4]; Table 1): 3.5 nM
Classification CB2 (CB2 receptor [5]): Partial agonist
Ki (CB2 receptor [6]; [10]): 7.8 nM
Classification CB1 (CB1 receptor [3]; Table 1): Partial agonist

Cc1c(C(=O)NN2CCCCC2)nn(-c2ccc(Cl)cc2Cl)c1-c1ccc(Cl)cc1 [SR141716A]
Classification CB2 (CB2 receptor [5]): Inverse agonist

Cc1ccc(Cn2nc(C(=O)NC3C4(C)CCC(C4)C3(C)C)cc2-c2ccc(Cl)c(C)c2)cc1 [SR144528, 5-(4-Chloro-3-methyl-phenyl)-1-(4-methyl-benzyl)-1H-pyrazole-3-carboxylic acid ((1S)-1,3,3-trimethylbicyclo[2.2.1]hept-2endo,exo-yl)-amide]
ovariectomy-induced bone loss, trabecular density ([1]; 6 mg/kg daily injection, 21 days, pQCT, tibia): very effective at reversing the bone loss
ovariectomy-induced bone loss in a mouse model [1]: completely reverse
osteoblast survival (mouse osteoblasts): little activity
IC50 (osteoclasts): ~5 µM
ovariectomy-induced bone loss at the femoral site (femoral bone mineral content and density) [7]: very effective at reversing the bone loss
survival and resorptive activity of authentic rabbit osteoclasts (rabbit osteoclasts): inhibit
IC50 [2, 8]: ~9 µM
IC50 [2, 9]: 9 µM
Classification CB1 (CB1 receptor [3]): Inverse agonist

Cc1c(C(=O)c2cccc3ccccc23)c2cccc3c2n1[C@H](CN1CCOCC1)CO3 [WIN55212]
CB receptor function (CB2) (CB2 receptor [5]): CB2 agonist
J774 viability (summary in words) [2]: do not affect
IC50 in J774 cells ([2]; J774 viability assay, Table 2): inactive
effect on J774 survival ([2]; concentrations of up to 100 μM): did not affect

Cc1ccc(Cn2nc(C(=O)NCc3ccc4c(c3)OCO4)cc2-c2ccc(Cl)c(C)c2)cc1 [benzodioxo, 5-(4-Chloro-3-methyl-phenyl)-1-(4-methyl-benzyl)-1H-pyrazole-3-carboxylic acid (benzo[1,3]dioxol-5-yl-methyl) amide]
IC50 [2, 8]: ~15 µM

COC(=O)c1cc(-c2ccc(Cl)c(C)c2)n(Cc2ccc(C)cc2)n1 [methyl, 5-(4-Chloro-3-methyl-phenyl)-1-(4-methyl-benzyl)-1H-pyrazole-3-carboxylic acid methyl ester]
IC50 [2, 8]: ~9 µM

Cc1ccc(Cn2nc(C(=O)NN3CCCCC3)cc2-c2ccc(Cl)c(C)c2)cc1 [piperidinyl, 5-(4-Chloro-3-methyl-phenyl)-1-(4-methyl-benzyl)-1H-pyrazole-3-carboxylic acid piperidin-1-yl amide]
IC50 [2, 8]: ~15 µM

CCCCCc1cc(O)c2c(c1)OC(C)(C)[C@@H]1CCC(C)=C[C@@H]21 [Δ^9THC, Δ^9-tetrahydrocannabinol]
Classification CB2 (CB2 receptor [5]): Neutral antagonist
